How the values were obtained:
[1] = molecular target: Epithelial discoidin domain-containing receptor 1 (Homo sapiens) (UniProt Q08345); assay: Inhibition of human DDR1 assessed as remaining enzyme activity at 0.1 uM
[2] = molecular target: Tyrosine-protein kinase FRK (Homo sapiens) (UniProt P42685); assay: Inhibition of human PTK5 assessed as remaining enzyme activity at 1 uM
[3] = molecular target: T1, Muscle, skeletal receptor tyrosine-protein kinase (Homo sapiens) (UniProt O15146); assay: Inhibition of human MuSK assessed as remaining enzyme activity at 0.1 uM
T1 sequence (whole entry): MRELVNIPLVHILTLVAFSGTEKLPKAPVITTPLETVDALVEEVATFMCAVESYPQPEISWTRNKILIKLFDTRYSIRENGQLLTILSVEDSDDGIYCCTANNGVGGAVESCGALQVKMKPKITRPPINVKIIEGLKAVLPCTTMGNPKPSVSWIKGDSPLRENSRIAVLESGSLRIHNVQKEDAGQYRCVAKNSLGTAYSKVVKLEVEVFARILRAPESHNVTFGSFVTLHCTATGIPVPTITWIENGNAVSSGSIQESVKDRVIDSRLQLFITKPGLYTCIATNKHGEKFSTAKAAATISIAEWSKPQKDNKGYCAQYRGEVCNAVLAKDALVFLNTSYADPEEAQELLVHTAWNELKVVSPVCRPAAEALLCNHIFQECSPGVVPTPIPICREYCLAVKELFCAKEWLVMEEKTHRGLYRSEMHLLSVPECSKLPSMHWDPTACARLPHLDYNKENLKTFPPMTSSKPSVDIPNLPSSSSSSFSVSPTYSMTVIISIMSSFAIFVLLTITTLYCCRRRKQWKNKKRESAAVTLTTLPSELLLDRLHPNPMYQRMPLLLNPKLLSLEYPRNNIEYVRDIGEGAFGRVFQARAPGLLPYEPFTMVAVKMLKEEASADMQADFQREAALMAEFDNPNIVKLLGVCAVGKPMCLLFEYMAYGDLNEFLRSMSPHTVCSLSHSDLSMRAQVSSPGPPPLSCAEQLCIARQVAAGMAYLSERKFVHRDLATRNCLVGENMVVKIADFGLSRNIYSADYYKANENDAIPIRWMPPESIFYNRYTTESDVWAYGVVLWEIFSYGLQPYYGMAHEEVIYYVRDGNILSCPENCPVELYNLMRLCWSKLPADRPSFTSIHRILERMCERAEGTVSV

[4] = molecular target: Tyrosine-protein kinase ABL1 (Mus musculus) (UniProt P00520); assay: Inhibition of mouse Abl assessed as remaining enzyme activity at 0.01 uM
[5] = molecular target: Ephrin type-A receptor 2 (Homo sapiens) (UniProt P29317); assay: Inhibition of human EphA2 assessed as remaining enzyme activity at 1 uM
[6] = molecular target: MAP kinase-interacting serine/threonine-protein kinase 2 (Homo sapiens) (UniProt Q9HBH9); assay: Inhibition of human MNK2 assessed as remaining enzyme activity at 1 uM
[7] = molecular target: Tyrosine-protein kinase ABL1 (Mus musculus) (UniProt P00520); assay: Inhibition of mouse Abl assessed as remaining enzyme activity at 1 uM
Homo sapiens = species on record: Homo sapiens; assay: Inhibition of human p70S6K assessed as remaining enzyme activity at 1 uM
[8] = molecular target: Vascular endothelial growth factor receptor 3 (Homo sapiens) (UniProt P35916); assay: Inhibition of human VEGFR3 assessed as remaining enzyme activity at 0.01 uM
[9] = molecular target: NT-3 growth factor receptor (Homo sapiens) (UniProt Q16288); assay: Inhibition of human TRKC assessed as remaining enzyme activity at 0.1 uM
[10] = molecular target: Platelet-derived growth factor receptor alpha (Homo sapiens) (UniProt P16234); assay: Inhibition of human PDGFRAlpha assessed as remaining enzyme activity at 1 uM
[11] = molecular target: Mitogen-activated protein kinase 14 (Homo sapiens) (UniProt Q16539); assay: Inhibition of human p38alpha assessed as remaining enzyme activity at 0.1 uM
[12] = molecular target: Mitogen-activated protein kinase kinase kinase 20 (Homo sapiens) (UniProt Q9NYL2); assay: Inhibition of human ZAK assessed as remaining enzyme activity at 0.01 uM
[13] = molecular target: RAF proto-oncogene serine/threonine-protein kinase (Homo sapiens) (UniProt P04049); assay: Inhibition of human C-Raf assessed as remaining enzyme activity at 0.1 uM
[14] = molecular target: Epithelial discoidin domain-containing receptor 1 (Homo sapiens) (UniProt Q08345); assay: Inhibition of human DDR1 assessed as remaining enzyme activity at 1 uM
[15] = molecular target: Mitogen-activated protein kinase kinase kinase kinase 5 (Homo sapiens) (UniProt Q9Y4K4); assay: Inhibition of human MAP4K5 assessed as remaining enzyme activity at 0.01 uM
[16] = molecular target: Tyrosine-protein kinase Lyn (Homo sapiens) (UniProt P07948); assay: Inhibition of human LYN assessed as remaining enzyme activity at 1 uM
[17] = molecular target: Mitogen-activated protein kinase kinase kinase 20 (Homo sapiens) (UniProt Q9NYL2); assay: Inhibition of human ZAK assessed as remaining enzyme activity at 0.1 uM
[18] = molecular target: Vascular endothelial growth factor receptor 2 (Homo sapiens) (UniProt P35968); assay: Inhibition of human VEGFR2 assessed as remaining enzyme activity at 0.1 uM
[19] = molecular target: Mitogen-activated protein kinase kinase kinase 20 (Homo sapiens) (UniProt Q9NYL2); assay: Inhibition of human ZAK assessed as remaining enzyme activity at 1 uM
[20] = molecular target: Tyrosine-protein kinase Lyn (Homo sapiens) (UniProt P07948); assay: Inhibition of human LYN assessed as remaining enzyme activity at 0.1 uM
[21] = molecular target: RAF proto-oncogene serine/threonine-protein kinase (Homo sapiens) (UniProt P04049); assay: Inhibition of human C-Raf assessed as remaining enzyme activity at 1 uM
[22] = molecular target: Macrophage colony-stimulating factor 1 receptor (Homo sapiens) (UniProt P07333); assay: Inhibition of human FMS assessed as remaining enzyme activity at 0.01 uM
[23] = molecular target: Homeodomain-interacting protein kinase 2 (Homo sapiens) (UniProt Q9H2X6); assay: Inhibition of human HIPK2 assessed as remaining enzyme activity at 0.01 uM
[24] = molecular target: RAF proto-oncogene serine/threonine-protein kinase (Homo sapiens) (UniProt P04049); assay: Inhibition of human RAF1 assessed as remaining enzyme activity at 0.1 uM
[25] = molecular target: BDNF/NT-3 growth factors receptor (Homo sapiens) (UniProt Q16620); assay: Inhibition of human TRKB assessed as remaining enzyme activity at 1 uM
[26] = molecular target: Tyrosine-protein kinase Lyn (Homo sapiens) (UniProt P07948); assay: Inhibition of human LYN assessed as remaining enzyme activity at 0.01 uM
[27] = molecular target: Mast/stem cell growth factor receptor Kit (Homo sapiens) (UniProt P10721); assay: Inhibition of human c-Kit assessed as remaining enzyme activity at 1 uM
[28] = molecular target: NT-3 growth factor receptor (Homo sapiens) (UniProt Q16288); assay: Inhibition of human TRKC assessed as remaining enzyme activity at 1 uM
[29] = molecular target: T1, Muscle, skeletal receptor tyrosine-protein kinase (Homo sapiens); assay: Inhibition of human MuSK assessed as remaining enzyme activity at 1 uM
[30] = molecular target: Tyrosine-protein kinase ABL1 (Mus musculus) (UniProt P00520); assay: Inhibition of mouse Abl assessed as remaining enzyme activity at 0.1 uM
[31] = molecular target: Mitogen-activated protein kinase 14 (Homo sapiens) (UniProt Q16539); assay: Inhibition of human p38alpha assessed as remaining enzyme activity at 1 uM
[32] = molecular target: Vascular endothelial growth factor receptor 2 (Homo sapiens) (UniProt P35968); assay: Inhibition of human VEGFR2 assessed as remaining enzyme activity at 1 uM
[33] = molecular target: Mitogen-activated protein kinase kinase kinase kinase 5 (Homo sapiens) (UniProt Q9Y4K4); assay: Inhibition of human MAP4K5 assessed as remaining enzyme activity at 0.1 uM
[34] = molecular target: Homeodomain-interacting protein kinase 2 (Homo sapiens) (UniProt Q9H2X6); assay: Inhibition of human HIPK2 assessed as remaining enzyme activity at 1 uM
[35] = molecular target: Macrophage colony-stimulating factor 1 receptor (Homo sapiens) (UniProt P07333); assay: Inhibition of human FMS assessed as remaining enzyme activity at 0.1 uM

Chain of Mitogen-activated protein kinase kinase kinase 20 (Homo sapiens) (Q9NYL2 2-800 limits assumed): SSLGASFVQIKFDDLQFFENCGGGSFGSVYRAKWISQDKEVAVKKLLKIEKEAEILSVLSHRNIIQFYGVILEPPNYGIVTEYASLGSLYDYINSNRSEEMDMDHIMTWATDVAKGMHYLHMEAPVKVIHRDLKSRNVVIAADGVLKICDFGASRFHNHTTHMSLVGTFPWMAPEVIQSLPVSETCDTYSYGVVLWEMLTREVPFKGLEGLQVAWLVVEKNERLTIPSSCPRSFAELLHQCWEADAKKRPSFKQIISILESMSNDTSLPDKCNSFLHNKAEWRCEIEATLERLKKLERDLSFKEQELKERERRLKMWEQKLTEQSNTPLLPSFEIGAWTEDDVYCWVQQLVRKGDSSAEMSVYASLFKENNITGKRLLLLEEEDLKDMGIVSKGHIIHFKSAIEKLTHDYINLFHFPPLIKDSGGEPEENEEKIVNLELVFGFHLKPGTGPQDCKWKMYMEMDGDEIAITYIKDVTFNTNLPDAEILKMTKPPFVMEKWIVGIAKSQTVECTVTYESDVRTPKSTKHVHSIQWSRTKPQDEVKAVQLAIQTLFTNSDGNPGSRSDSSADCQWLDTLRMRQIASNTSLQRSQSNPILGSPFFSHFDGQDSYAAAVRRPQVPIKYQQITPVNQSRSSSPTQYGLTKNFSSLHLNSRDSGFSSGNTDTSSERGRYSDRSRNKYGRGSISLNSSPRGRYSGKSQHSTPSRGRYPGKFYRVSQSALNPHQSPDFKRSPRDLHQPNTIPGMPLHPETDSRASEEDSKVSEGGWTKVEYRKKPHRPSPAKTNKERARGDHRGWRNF
Chain of Tyrosine-protein kinase Lyn (Homo sapiens) (P07948 2-512 limits assumed): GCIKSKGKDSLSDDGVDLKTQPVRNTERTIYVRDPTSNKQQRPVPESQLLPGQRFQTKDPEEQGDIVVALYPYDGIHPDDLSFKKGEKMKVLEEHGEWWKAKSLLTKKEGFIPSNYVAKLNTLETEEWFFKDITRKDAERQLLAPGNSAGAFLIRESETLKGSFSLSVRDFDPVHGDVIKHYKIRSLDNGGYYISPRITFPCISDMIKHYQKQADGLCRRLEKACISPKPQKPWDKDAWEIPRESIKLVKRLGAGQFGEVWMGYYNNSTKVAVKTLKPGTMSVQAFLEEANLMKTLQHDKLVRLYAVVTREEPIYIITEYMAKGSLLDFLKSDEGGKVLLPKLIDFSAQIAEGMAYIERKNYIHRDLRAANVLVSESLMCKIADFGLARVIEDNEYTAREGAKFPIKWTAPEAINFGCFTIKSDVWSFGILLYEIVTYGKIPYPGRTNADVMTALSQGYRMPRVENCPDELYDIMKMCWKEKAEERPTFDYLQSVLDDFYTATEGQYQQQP
Chain of Tyrosine-protein kinase ABL1 (Mus musculus) (P00520 whole entry): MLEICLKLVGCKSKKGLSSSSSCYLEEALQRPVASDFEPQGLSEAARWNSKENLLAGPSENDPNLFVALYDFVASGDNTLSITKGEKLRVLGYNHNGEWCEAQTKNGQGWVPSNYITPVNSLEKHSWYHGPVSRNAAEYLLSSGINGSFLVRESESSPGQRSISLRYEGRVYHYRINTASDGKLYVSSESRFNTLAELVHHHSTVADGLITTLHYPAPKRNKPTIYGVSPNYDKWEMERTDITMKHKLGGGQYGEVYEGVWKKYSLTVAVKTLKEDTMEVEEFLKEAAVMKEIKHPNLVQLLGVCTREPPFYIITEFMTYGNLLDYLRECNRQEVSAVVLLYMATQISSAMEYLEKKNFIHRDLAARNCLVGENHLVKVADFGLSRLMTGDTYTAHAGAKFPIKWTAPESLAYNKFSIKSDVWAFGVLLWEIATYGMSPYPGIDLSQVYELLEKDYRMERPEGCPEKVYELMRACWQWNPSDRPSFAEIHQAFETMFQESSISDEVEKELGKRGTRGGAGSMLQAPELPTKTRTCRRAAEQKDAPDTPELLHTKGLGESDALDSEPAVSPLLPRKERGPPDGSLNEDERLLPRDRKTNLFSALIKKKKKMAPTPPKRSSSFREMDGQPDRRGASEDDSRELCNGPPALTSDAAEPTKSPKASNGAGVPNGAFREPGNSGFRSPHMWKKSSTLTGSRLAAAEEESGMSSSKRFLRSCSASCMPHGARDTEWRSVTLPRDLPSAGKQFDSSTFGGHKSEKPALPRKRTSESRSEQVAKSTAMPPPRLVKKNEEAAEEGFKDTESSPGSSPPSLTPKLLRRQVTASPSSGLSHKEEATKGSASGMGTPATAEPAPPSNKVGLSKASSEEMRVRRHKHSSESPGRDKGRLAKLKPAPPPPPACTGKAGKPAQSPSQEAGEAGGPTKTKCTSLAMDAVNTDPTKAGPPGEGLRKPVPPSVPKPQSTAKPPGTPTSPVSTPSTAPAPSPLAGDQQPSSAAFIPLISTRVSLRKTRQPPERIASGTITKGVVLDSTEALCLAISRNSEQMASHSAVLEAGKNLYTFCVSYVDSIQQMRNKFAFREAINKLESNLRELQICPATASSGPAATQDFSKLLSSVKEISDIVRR
Chain of RAF proto-oncogene serine/threonine-protein kinase (Homo sapiens) (P04049 whole entry, the tested form may be a part): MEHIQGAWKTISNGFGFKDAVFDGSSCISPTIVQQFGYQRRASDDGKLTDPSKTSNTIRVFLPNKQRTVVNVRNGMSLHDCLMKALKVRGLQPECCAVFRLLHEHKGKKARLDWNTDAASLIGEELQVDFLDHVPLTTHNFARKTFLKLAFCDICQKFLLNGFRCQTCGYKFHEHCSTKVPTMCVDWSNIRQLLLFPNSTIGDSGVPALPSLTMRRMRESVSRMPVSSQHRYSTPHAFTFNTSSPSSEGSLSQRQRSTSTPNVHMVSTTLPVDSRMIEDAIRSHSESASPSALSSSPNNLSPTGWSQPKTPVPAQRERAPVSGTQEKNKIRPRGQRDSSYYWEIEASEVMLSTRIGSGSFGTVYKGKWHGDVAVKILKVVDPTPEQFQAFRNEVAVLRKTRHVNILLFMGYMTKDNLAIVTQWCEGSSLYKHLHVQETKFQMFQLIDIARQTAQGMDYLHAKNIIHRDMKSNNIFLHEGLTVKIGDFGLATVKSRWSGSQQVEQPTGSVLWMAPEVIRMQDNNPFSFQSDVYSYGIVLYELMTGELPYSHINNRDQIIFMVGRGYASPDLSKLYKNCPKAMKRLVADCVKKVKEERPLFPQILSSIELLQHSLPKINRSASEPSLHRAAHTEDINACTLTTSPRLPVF
Chain of Vascular endothelial growth factor receptor 2 (Homo sapiens) (P35968 whole entry): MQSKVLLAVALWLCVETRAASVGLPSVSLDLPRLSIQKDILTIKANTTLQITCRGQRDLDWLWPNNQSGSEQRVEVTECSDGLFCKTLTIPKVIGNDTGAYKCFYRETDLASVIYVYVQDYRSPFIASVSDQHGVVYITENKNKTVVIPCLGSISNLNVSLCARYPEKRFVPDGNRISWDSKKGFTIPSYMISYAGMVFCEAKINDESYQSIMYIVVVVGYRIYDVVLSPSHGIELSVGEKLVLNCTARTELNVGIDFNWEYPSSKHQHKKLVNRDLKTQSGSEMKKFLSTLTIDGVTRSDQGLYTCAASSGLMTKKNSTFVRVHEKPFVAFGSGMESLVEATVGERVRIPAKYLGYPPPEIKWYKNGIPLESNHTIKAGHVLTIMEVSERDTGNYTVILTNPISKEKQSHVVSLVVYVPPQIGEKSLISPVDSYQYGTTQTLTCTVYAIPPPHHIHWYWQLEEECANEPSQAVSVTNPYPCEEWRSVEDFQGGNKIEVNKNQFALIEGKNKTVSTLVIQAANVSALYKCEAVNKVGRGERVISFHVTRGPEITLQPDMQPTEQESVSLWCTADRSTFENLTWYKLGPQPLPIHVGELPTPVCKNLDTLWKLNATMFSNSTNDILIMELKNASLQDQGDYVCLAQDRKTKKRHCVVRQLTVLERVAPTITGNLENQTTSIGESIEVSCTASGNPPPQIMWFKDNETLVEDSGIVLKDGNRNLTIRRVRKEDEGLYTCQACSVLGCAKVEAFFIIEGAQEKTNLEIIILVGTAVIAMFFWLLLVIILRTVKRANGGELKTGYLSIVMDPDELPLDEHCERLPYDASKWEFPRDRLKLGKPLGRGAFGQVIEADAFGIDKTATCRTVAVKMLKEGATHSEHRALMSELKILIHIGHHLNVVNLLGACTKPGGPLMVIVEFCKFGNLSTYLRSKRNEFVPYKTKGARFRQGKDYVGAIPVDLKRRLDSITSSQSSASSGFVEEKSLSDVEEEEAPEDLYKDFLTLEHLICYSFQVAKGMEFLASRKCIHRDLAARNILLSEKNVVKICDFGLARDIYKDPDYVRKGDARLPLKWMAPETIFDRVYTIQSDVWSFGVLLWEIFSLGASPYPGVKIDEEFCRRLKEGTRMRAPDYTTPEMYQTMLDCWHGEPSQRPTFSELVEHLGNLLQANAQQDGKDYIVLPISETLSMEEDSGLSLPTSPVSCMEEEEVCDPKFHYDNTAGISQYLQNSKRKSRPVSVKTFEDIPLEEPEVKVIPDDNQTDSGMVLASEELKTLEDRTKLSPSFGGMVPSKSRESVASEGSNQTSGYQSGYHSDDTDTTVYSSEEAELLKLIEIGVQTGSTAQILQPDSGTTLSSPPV
Chain of Mitogen-activated protein kinase 14 (Homo sapiens) (Q16539 whole entry): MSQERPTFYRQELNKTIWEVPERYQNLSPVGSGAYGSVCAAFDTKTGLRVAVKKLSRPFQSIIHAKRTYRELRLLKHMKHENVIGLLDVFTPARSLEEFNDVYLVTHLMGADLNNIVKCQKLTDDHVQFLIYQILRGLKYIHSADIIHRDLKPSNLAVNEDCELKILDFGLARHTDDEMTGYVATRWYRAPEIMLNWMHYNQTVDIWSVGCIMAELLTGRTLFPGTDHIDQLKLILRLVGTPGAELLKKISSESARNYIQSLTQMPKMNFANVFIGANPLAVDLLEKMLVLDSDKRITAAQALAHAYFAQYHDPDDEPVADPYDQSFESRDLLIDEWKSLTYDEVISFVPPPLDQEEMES

Activity [1]: 43% | Activity [2]: 3% | Activity [3]: 92% | Activity [4]: 22% | Activity [5]: 5% | Activity [6]: 34% | Activity [7]: -1% | Activity (Homo sapiens): 36% | Activity [8]: 38% | Activity [9]: 17% | Activity [10]: 35% | Activity [11]: 52% | Activity [12]: 27% | Activity [13]: 57% | Activity [14]: 11% | Activity [15]: 104% | Activity [16]: 1% | Activity [17]: 2% | Activity [18]: 19% | Activity [19]: -1% | Activity [20]: 21% | Activity [21]: 8% | Activity [22]: 73% | Activity [23]: 96% | Activity [24]: 57% | Activity [25]: 1% | Activity [26]: 32% | Activity [27]: -1% | Activity [28]: 1% | Activity [29]: 21% | Activity [30]: -7% | Activity [31]: -6% | Activity [32]: 17% | Activity [33]: 37% | Activity [34]: 13% | Activity [35]: 36%
Compound: CNC(=O)c1cc(Oc2ccc(NC(=O)Nc3ccc(Cl)c(C(F)(F)F)c3)c(F)c2)ccn1
